# Laboratory results published in US20260034125A1, “N-PHENYL-1-(PHENYLSULFONYL)PIPERIDIN-4-AMINE DERIVATIVES AS CCR6 INHIBITORS” (priority 2023, published 2026).
# Key:
# human CCR6 = molecular target: T1, human CCR6 (Homo sapiens, UniProt P51684); experiment: Human CCR6-Cre reporter assay; assay type: cell-based; set-up: The second construct contained the open reading frame of human CCR6 in the pUNO1 backbone; host or cells: 293 FT cells; conditions: relative -LogIC50; transfected 293 FT cells, 6 μM Forskolin, 6 nM CCL20, luciferase readout, 5h
# T1 sequence (P51684 1-374): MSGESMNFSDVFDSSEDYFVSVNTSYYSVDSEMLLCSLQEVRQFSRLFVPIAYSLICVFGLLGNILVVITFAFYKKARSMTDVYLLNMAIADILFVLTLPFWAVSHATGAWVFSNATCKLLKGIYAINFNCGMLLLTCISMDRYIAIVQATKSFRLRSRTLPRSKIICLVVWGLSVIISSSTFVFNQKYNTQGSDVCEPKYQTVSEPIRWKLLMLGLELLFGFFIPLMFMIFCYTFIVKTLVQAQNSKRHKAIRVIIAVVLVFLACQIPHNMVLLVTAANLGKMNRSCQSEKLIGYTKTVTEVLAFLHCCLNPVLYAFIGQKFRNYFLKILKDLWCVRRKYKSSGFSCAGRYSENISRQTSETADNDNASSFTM
# Procedure: 293 FT cells were transfected with 2 constructs using TransIT-293 (Mirus). The first construct (pGL4.29, Promega) expressed the luciferase reporter gene luc2P in response to the binding of cAMP-induced CREB to the CRE element in its promoter. The second construct contained the open reading frame of human CCR6 in the pUNO1 backbone under the control of an enhanced CMV promoter (In VivoGen). 48h after transfection, cells were harvested and diluted to 750,000 cells/ml in culture medium (DMEM, 10% FBS, 1× pen/strep (Gibco 15140)). Compounds were 2.5-fold serially diluted in DMSO. Further dilutions were made in assay medium (DMEM, 10% FBS, 1× pen/strep, 6 μM Forskolin, 6 nM CCL20). 4 μl of the compound solution was added to a white MW384 plate, followed by 20 μl of the cell suspension. Final DMSO concentration in the assay was 0.1%. The MW384 plate was placed in an incubator at 37° C., 5% CO2 for 5h. Luciferase activity was determined by addition of 24 μl of a 2.5× diluted BriteLite luciferase solution (Perkin Elmer), followed by luminescence measurement using a VICTOR Plate reader (Perkin Elmer). […] The relative-LogIC50 was determined with GraphPad Prism 9 using a four-parameter dose-response model.
# Human CD4+ T cells = experiment: CD4+ T cell chemotaxis assay towards CCL20; assay type: cell-based; conditions: relative -LogIC50, 150 ng/ml CCL20, Transwell, 3 h
# From the text: Human CD4+ T cells were isolated from buffy coats of healthy donors using a CD4+ T Cell Isolation Kit (Miltenyi Biotec130-096-533). Isolated T cells were stimulated overnight with anti-CD3 and anti-CD28 antibodies (Biolegend 300314/302934) in growth medium (RPMI1640, 10% heat-inactivated FBS, 1× pen/strep (Gibco 15140)). For the chemotaxis assay, Corning Transwell plates were used with a pore size of 5 μm (Corning 3388). T cells were counted and diluted to 6*10^6 cells/ml in chemotaxis medium (RPMI1640, 1% BSA, pen/strep). Compounds were four-fold serially diluted in DMSO. Further dilutions were made in chemotaxis medium. Cells were incubated with test compounds for 30 min at 37° C. prior to initiation of the assay (3*10^6 cells/ml). Final DMSO concentration in the assay was 0.2%. Wells of the Transwell plates were filled with 200 μl chemotaxis medium containing 150 ng/ml CCL20 (R&D systems 360-MP). 50 μl of the cell/compound suspension was added to the inserts of the Transwell plates (150,000 cells/insert). The Transwell plates were placed in an incubator at 37° C., 5% CO2 for 3 h. After 3 h, the number of migrated cells was quantified using CellTiter Glo (Promega). Percentage inhibition values were calculated based on the low and high signal obtained with 0.2% DMSO in chemotaxis medium without and with CCL20, respectively. The relative −LogIC50 was determined with GraphPad Prism 9 using a four-parameter dose-response model.
SMILES,IC50 (human CCR6),IC50 (Human CD4+ T cells)
"N#Cc1ccc(-c2ccc(S(=O)(=O)N3CCC(Nc4ccc(C5(C#N)CC5)cc4)CC3)cc2)cc1 [Example 1, 4′-[(4-{[4-(1-cyanocyclopropyl)phenyl]Amino}piperidin-1-yl)sulfonyl]-[1,1′-biphenyl]-4-carbonitrile]",501 nM,–
"Cc1n[nH]c2ccc(-c3ccc(S(=O)(=O)N4CCC(Nc5ccc(C6(C(F)(F)F)CC6)cc5)CC4)cc3)cc12 [Example 2, 1-[4-(3-methyl-1H-indazol-5-yl)benzenesulfonyl]-N-{4-[1-(trifluoromethyl)cyclopropyl]phenyl}piperidin-4-amine]",79.4 nM,–
"N#Cc1c[nH]c2ccc(-c3ccc(S(=O)(=O)N4CCC(Nc5ccc(C6(C(F)(F)F)CC6)cc5)CC4)cc3)cc12 [Example 8, 5-(4-{[4-({4-[1-(trifluoromethyl)cyclopropyl]phenyl}Amino)piperidin-1-yl]sulfonyl}phenyl)-1H-indole-3-carbonitrile]",39.8 nM,–
"O=S(=O)(c1ccc(-c2ccc3nccn3c2)cc1)N1CCC(Nc2ccc(C3(C(F)(F)F)CC3)cc2)CC1 [Example 9, 1-(4-{imidazo[1,2-a]pyridin-6-yl}benzenesulfonyl)-N-{4-[1-(trifluoromethyl)cyclopropyl]phenyl}piperidin-4-amine]",100 nM,–
"CC(C)c1cnc2ccc(-c3ccc(S(=O)(=O)N4CCC(Nc5ccc(C6(C(F)(F)F)CC6)cc5)CC4)cc3)cn12 [Example 10, 1-{4-[3-(propan-2-yl)imidazo[1,2-a]pyridin-6-yl]benzenesulfonyl}-N-{4-[1-(trifluoromethyl)cyclopropyl]phenyl}piperidin-4-amine]",100 nM,–
"Cc1n[nH]c2ccc(-c3ccc(S(=O)(=O)N4CCC(Nc5ccc(C6CC6)cc5)CC4)cc3)cc12 [Example 11, N-(4-cyclopropylphenyl)-1-[4-(3-methyl-1H-indazol-5-yl)benzenesulfonyl]piperidin-4-amine]",501 nM,–
"N=S(=O)(c1ccc(-c2ccc3nccn3c2)cc1)[C@H]1CC[C@H](Nc2ccc(C3(C(F)(F)F)CC3)cc2)CC1 (stereo partly drawn) [Example 13, (4-{imidazo[1,2-a]pyridin-6-yl}phenyl) [trans-4-({4-[1-(trifluoromethyl)cyclopropyl]phenyl}Amino)cyclohexyl](imino)-26-sulfanone]",251 nM,–
"O=S(=O)(c1ccc(-c2ccc3nccn3c2)cc1)[C@H]1CC[C@H](Nc2ccc(C3CC3(F)F)cc2)CC1 (stereo partly drawn) [Example 14, 4-(2,2-difluorocyclopropyl)-N-[trans-4-(4-{imidazo[1,2-a]pyridin-6-yl}benzenesulfonyl)cyclohexyl]aniline]",251 nM,–
"N#CC1(c2ccc(N[C@H]3CC[C@H](S(=O)(=O)c4ccc(-c5ccc6nccn6c5)cc4)CC3)cc2)CC1 [Example 15, 1-(4-{[trans-4-(4-{imidazo[1,2-a]pyridin-6-yl}benzenesulfonyl)cyclohexyl]Amino}phenyl)cyclopropane-1-carbonitrile]",158 nM,–
"O=S(=O)(c1ccc(-c2ccc3nccn3c2)cc1)[C@H]1CC[C@H](Nc2ccc(C3COC3)cc2)CC1 [Example 18, 4-(oxetan-3-yl)-N-[trans-4-(4-{imidazo[1,2-a]pyridin-6-yl}benzenesulfonyl)cyclohexyl]aniline]",398 nM,–
"COC1CC2(CCN(c3ccc(S(=O)(=O)N4CCC(Nc5ccc(C6(C#N)CC6)cn5)CC4)cc3)CC2)C1 [Example 23, 1-(6-{[1-(4-{2-methoxy-7-azaspiro[3.5]nonan-7-yl}benzenesulfonyl)piperidin-4-yl]amino}pyridin-3-yl)cyclopropane-1-carbonitrile]",1260 nM,–
"N#CC1(c2ccc(NC3CCN(S(=O)(=O)c4ccc(N5CCC(CC(N)=O)CC5)cc4)CC3)nc2)CC1 [Example 24, 2-(1-{4-[(4-{[5-(1-cyanocyclopropyl)pyridin-2-yl]amino}piperidin-1-yl)sulfonyl]phenyl}piperidin-4-yl) acetamide]",5010 nM,–
"N#CC1(c2ccc(NC3CCN(S(=O)(=O)c4ccc(N5CCC(CNC(N)=O)CC5)cc4)CC3)nc2)CC1 [Example 25, [(1-{4-[(4-{[5-(1-cyanocyclopropyl)pyridin-2-yl]amino}piperidin-1-yl)sulfonyl]phenyl}piperidin-4-yl)methyl]urea]",12600 nM,–
"N#CC1(c2ccc(NC3CCN(S(=O)(=O)c4ccc(N5CCC6(CC5)CC(=O)NC(=O)C6)cc4)CC3)nc2)CC1 [Example 26, 1-(6-{[1-(4-{8,10-dioxo-3,9-diazaspiro[5.5]undecan-3-yl}benzenesulfonyl)piperidin-4-yl]amino}pyridin-3-yl)cyclopropane-1-carbonitrile]",2510 nM,–
"N#CC1(c2ccc(NC3CCN(S(=O)(=O)c4ccc(N5CCC6(CC5)COC(=O)N6)cc4)CC3)nc2)CC1 [Example 27, 1-(6-{[1-(4-{2-oxo-3-oxa-1,8-diazaspiro[4.5]decan-8-yl}benzenesulfonyl)piperidin-4-yl]amino}pyridin-3-yl)cyclopropane-1-carbonitrile]",7940 nM,–
"N#CC1(c2ccc(NC3CCN(S(=O)(=O)c4ccc(N5CCC6(CCNC6=O)CC5)cc4)CC3)nc2)CC1 [Example 28, 1-(6-{[1-(4-{1-oxo-2,8-diazaspiro[4.5]decan-8-yl}benzenesulfonyl)piperidin-4-yl]amino}pyridin-3-yl)cyclopropane-1-carbonitrile]",39800 nM,–
"N#CC1(c2ccc(NC3CCN(S(=O)(=O)c4ccc(N5CCC6(CC5)COC6)cc4)CC3)nc2)CC1 [Example 29, 1-(6-{[1-(4-{2-oxa-7-azaspiro[3.5]nonan-7-yl}benzenesulfonyl)piperidin-4-yl]amino}pyridin-3-yl)cyclopropane-1-carbonitrile]",10000 nM,–
"N#CC1(c2ccc(NC3CCN(S(=O)(=O)c4ccc(-c5ccc6nccn6c5)cc4)CC3)nc2)CC1 [Example 33, 1-(6-{[1-(4-{imidazo[1,2-a]pyridin-6-yl}benzenesulfonyl)piperidin-4-yl]amino}pyridin-3-yl)cyclopropane-1-carbonitrile]",794 nM,–
"CC(C)c1cnc2ccc(-c3ccc(S(=O)(=O)N4CCC(Nc5ccc(C6(C#N)CC6)cn5)CC4)cc3)cn12 [Example 34, 1-{6-[(1-{4-[3-(propan-2-yl)imidazo[1,2-a]pyridin-6-yl]benzenesulfonyl}piperidin-4-yl)amino]pyridin-3-yl}cyclopropane-1-carbonitrile]",200 nM,–
"CC(C)c1cnc2ccc(-c3ccc(S(=O)(=O)N4CCC(Nc5ccc(C6(C(F)(F)F)CC6)cn5)CC4)cc3)cn12 [Example 38, N-(1-{4-[3-(propan-2-yl)imidazo[1,2-a]pyridin-6-yl]benzenesulfonyl}piperidin-4-yl)-5-[1-(trifluoromethyl)cyclopropyl]pyridin-2-amine]",63.1 nM,–
"CC(C)c1nnc2cnc(-c3ccc(S(=O)(=O)N4CCC(Nc5ccc(C6(C(F)(F)F)CC6)cn5)CC4)cc3)cn12 [Example 39, N-(1-{4-[3-(propan-2-yl)-[1,2,4]triazolo[4,3-a]pyrazin-6-yl]benzenesulfonyl}piperidin-4-yl)-5-[1-(trifluoromethyl)cyclopropyl]pyridin-2-amine]",63.1 nM,–
"Cc1nnc2ccc(-c3ccc(S(=O)(=O)N4CCC(Nc5ccc(C6(C(F)(F)F)CC6)cn5)CC4)cc3)cn12 [Example 47, N-[1-(4-{3-methyl-[1,2,4]triazolo[4,3-a]pyridin-6-yl}benzenesulfonyl)piperidin-4-yl]-5-[1-(trifluoromethyl)cyclopropyl]pyridin-2-amine]",–,15.8 nM
